Results taken from patent publication US20250213558A1, “T-TYPE CALCIUM CHANNEL MODULATORS COMPRISING A PIPERAZINE OR 1,4-DIAZEPANE CORE AND METHODS OF USE THEREOF” (Praxis Precision Medicines, Inc., priority 2022, published 2025).
Read-outs that look alike come from different tables or passages of the source.

Molecular target: T1, Human Cav3.1 calcium channel (Homo sapiens, UniProt O43497)
T1 construct: expressed in transfected cells; host or cells: HEK-293 natClytin/TASK1+Cav3.1 cell line
Assay: Human Cav3.1 calcium channel patch clamp assay (SyncroPatch 384PE; single point and IC50, voltage dependent block)
Type: cell-based
Conditions: for % Inhibition (Single Point Data): patch clamp
In short: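 Automated whole-cell patch clamp at room temperature, cells held at −120 mV; 100 ms step to −20 mV (resting block), then 1600 ms at −65 mV and a second −20 mV step (voltage-dependent block), every 15 s. Peak currents averaged over last 3 sweeps; % inhibition relative to nickel-sensitive current.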

[1] = Testing Conc 1, HEK-293 natClytin/TASK1+Cav3.1 cell line
[2] = voltage dependent block (VDB), HEK-293 natClytin/TASK1+Cav3.1 cell line, read-out: Cav3.1 IC50
[3] = Testing Conc 1.25, HEK-293 natClytin/TASK1+Cav3.1 cell line

T1 sequence (O43497 whole entry): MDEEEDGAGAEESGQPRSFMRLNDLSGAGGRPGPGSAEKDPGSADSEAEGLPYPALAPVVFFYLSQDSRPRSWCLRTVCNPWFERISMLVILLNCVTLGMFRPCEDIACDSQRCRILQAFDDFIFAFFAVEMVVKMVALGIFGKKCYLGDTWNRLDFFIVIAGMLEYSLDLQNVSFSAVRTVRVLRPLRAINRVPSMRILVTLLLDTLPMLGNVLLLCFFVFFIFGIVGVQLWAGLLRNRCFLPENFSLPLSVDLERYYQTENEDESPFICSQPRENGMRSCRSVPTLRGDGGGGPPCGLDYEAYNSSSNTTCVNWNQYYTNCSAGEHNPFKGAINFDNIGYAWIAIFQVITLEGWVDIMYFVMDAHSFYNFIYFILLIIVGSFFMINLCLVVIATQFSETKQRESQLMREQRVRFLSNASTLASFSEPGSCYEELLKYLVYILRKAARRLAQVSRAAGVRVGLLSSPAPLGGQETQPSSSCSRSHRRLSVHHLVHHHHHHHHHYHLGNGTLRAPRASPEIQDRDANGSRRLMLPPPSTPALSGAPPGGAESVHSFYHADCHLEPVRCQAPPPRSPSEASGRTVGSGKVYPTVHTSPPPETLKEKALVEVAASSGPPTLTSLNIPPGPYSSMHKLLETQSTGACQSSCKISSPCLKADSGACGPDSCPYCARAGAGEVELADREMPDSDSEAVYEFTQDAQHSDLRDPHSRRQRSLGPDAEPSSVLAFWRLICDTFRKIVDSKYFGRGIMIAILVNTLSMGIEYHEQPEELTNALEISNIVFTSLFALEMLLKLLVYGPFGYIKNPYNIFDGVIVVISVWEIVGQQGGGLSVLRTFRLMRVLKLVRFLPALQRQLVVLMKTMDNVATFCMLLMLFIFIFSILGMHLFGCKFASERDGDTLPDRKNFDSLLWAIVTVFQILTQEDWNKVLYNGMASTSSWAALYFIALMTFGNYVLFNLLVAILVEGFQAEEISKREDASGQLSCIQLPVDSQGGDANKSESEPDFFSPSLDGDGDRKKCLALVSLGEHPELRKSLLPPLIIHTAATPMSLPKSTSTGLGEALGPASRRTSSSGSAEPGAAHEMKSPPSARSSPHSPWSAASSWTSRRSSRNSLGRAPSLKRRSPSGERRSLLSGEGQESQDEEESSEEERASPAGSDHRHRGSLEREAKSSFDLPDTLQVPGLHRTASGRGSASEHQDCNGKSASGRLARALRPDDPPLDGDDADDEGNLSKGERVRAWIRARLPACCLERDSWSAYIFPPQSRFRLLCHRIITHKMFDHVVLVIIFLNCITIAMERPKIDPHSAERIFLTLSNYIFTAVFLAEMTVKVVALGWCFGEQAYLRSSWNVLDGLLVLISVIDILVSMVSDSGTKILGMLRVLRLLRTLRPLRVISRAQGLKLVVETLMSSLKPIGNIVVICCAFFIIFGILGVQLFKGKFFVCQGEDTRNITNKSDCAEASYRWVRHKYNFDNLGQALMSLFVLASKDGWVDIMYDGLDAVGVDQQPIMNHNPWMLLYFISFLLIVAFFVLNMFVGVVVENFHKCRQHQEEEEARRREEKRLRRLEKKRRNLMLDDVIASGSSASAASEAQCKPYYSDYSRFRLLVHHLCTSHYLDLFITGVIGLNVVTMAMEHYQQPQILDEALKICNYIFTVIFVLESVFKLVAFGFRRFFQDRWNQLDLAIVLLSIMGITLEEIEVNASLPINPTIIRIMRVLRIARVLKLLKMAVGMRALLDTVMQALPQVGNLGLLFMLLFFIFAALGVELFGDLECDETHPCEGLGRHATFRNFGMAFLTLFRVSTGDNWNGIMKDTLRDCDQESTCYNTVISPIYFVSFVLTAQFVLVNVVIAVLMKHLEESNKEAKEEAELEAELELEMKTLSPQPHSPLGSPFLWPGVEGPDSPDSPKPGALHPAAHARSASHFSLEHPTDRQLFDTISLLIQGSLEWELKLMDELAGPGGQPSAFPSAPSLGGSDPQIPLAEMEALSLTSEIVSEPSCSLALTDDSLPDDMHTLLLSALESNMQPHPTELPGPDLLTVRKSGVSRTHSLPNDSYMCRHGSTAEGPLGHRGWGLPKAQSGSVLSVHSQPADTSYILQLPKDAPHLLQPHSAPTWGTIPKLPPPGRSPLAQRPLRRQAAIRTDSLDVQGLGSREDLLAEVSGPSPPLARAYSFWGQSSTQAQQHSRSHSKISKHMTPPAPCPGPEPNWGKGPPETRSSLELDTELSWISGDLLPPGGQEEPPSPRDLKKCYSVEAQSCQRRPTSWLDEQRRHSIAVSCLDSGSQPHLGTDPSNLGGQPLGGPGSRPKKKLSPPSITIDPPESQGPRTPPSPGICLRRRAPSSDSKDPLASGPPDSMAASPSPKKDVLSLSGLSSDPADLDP

Row | % Inhibition (Single Point Data) [1] | IC50 [2] | SMILES | % Inhibition (Single Point Data) [3] | IC50
1 | 40.739% | 2800 nM | CC(C)(C)NC(=O)CN1CCN(Cc2nnc(-c3cc(F)cc(Cl)c3)[nH]2)CC1 [Compound 61, N-tert-butyl-2-[4-[[5-(3-chloro-5-fluoro-phenyl)-4H-1,2,4-triazol-3-yl]methyl]piperazin-1-yl]acetamide] |  | 
2 |  | 827 nM | CC(C)(C)NC(=O)CN1C[C@H]2C[C@@H]1CN2CC(=O)Nc1ccc(F)c(Cl)c1 [Compound 26] | 57.68% | 
3 |  | 185 nM | CC(C)(NC(=O)CN1C[C@@H]2C[C@H]1CN2CC(=O)Nc1ccc(F)c(Cl)c1)C(F)(F)F [Compound 24] | 92.08% | 
4 | 35.477% |  | Cc1cc(NC(=O)CN2CCN(CC(=O)NC(C)(C)C)CC2)n(C)n1 [Compound 39] |  | 
5 |  | 545 nM | CC(C)(C)NC(=O)CN1CCCN(Cc2nc3c(Cl)cc(F)cc3[nH]2)CC1 [Compound 70] | 87.175% | 
6 | 42.822% |  | CC(C)(C)NC(=O)CN1CCN(CC(=O)Nc2cc(F)cc(Cl)c2)C(=O)C1 [Compound 35] |  | 
7 |  | 249 nM | COc1cc(Cl)cc(NC(=O)CN2C[C@@H]3C[C@H]2CN3CC(=O)NC2(C(F)(F)F)CC2)c1 [Compound 339] | 87.995% | 
8 |  |  | O=C(CN1C[C@@H]2C[C@H]1CN2CC(=O)NC1(C(F)(F)F)CC1)Nc1ccc(F)c(OC(F)F)c1 [Compound 330] | 96.893% | 
9 |  | 74 nM | CC(C)(C)NC(=O)CN1C[C@@H]2C[C@H]1CN2CC(=O)Nc1cc(F)c(F)c(OC(F)F)c1 [Compound 356] |  | 
10 |  | 1020 nM | O=C(CN1C[C@H]2C[C@@H]1CN2CC(=O)NC1(C(F)(F)F)CC1)Nc1cc(F)cc(Cl)c1 [Compound 20] | 56.816% | 
11 |  |  | O=C(CN1CC2CC(C1)N2CC(F)(F)C1CCCCC1)Nc1cc(F)cc(Cl)c1 [Compound 226] | 39.507% | 
12 |  |  | CC(C)(C)NC(=O)CN1C2CCC1CN(Cc1nc3c(C(F)F)cccc3[nH]1)C2 [Compound 202] | 100.89% | 
13 |  |  | Cc1cc(Cl)cc(NC(=O)CN2CC3CC(C2)N3CC(=O)NC2(C(F)(F)F)CC2)c1 [Compound 336] | 87.863% | 
14 |  |  | Cc1ccc(C#N)c2nc(CN3CC4CC(C3)N4CC(=O)NC(C)(C)C)[nH]c12 [Compound 177] | 87.595% | 
15 |  |  | CC(C(=O)Nc1ccc(F)c(OC(F)F)c1)N1CC2CC(C1)N2CC(=O)NC(C)(C)C (stereo not shown) [Compound 256] | 100.73% | 
16 |  | 1070 nM | CC(C)(C)NC(=O)CN1C[C@H]2C[C@@H]1CN2CC(=O)Nc1ccc(F)c(OC(F)F)c1 [Compound 246] | 49.246% | 

Row | % Inhibition (Single Point Data) [1] | IC50 [2] | SMILES | % Inhibition (Single Point Data) [3] | IC50
17 |  | 600 nM | CC(C)(C)NC(=O)CN1CC[C@@H](CNc2nccc3ccc(Cl)cc23)CC1=O [Compound 46] |  | 
18 |  | 297 nM | O=C(CN1CC2CC1CN2CC(=O)NC1(C(F)(F)F)CC1)Nc1cc(F)cc(OC(F)F)c1 (stereo not shown) [Compound 56] | 70.217% | 
19 |  |  | CC(C)(C)NC(=O)CN1C2CCC1CN(Cc1nc3c(C4CC4)cccc3[nH]1)C2 [Compound 203] | 94.049% | 
20 |  | 1010 nM | CC(C)(NC(=O)CN1CCN(CC(=O)Nc2cc(F)cc(OC(F)F)c2)CC1)C(F)(F)F [Compound 53] | 57.147% | 
21 |  |  | Fc1cc(Cl)c2nc(CN3CCN(CCC4CCCC4)CC3)[nH]c2c1 [Compound 71] | 94.005% | 
22 |  | 289 nM | Cc1cc(Cl)cc(NC(=O)CN2C[C@@H]3C[C@H]2CN3CC(=O)NC2(C(F)(F)F)CC2)c1 [Compound 327] | 87.352% | 
23 |  | 395 nM | Fc1cc(Cl)c2nc(CN3CCN(Cc4cc5ccccc5[nH]4)CC3)[nH]c2c1 [Compound 72] | 81.94% | 
24 |  | 251 nM | O=C(CN1CC2CC1CN2CCNC(=O)C1(C(F)(F)F)CCC1)Nc1ccc(F)c(Cl)c1 (stereo not shown) [Compound 19] | 84.472% | 
25 |  | 1570 nM | O=C(CN1C[C@H]2C[C@@H]1CN2CC(=O)NC1(C(F)(F)F)CC1)Nc1ccc(F)c(Cl)c1 [Compound 28] | 39.491% | 
26 |  | 1210 nM | CC(C)(C)NC(=O)CN1CCN(CC(=O)Nc2cc(F)cc(Cl)c2)C2(COC2)C1 [Compound 44] | 50% | 
27 |  | 1560 nM | O=C(CN1CCN(CC(=O)NC2(C(F)(F)F)CC2)CC1)Nc1cc(F)cc(OC(F)F)c1 [Compound 54] | 39.211% | 
28 |  |  | CC1(CCN2C3CC2CN(Cc2nc4c(Cl)cc(F)cc4[nH]2)C3)CCC1 [Compound 109] | 98.531% | 
29 |  |  | Fc1cc(Cl)c2nc(CN3CC4CC(C3)N4CCC3CCC(F)(F)CC3)[nH]c2c1 [Compound 104] | 99.877% | < 78.2 nM
30 |  | 304 nM | O=C(CN1C[C@@H]2C[C@H]1CN2CCC1CCC(F)(F)CC1)NC12CC3CC(CC(C3)C1)C2 [Compound 318] | 88.753% | 
31 |  |  | CC(C)(C)NC(=O)CN1C[C@@H]2C[C@H]1CN2CC(=O)Nc1ccn(Cc2ccc(C#N)cn2)n1 [Compound 314] | 5.0515% | 

Row | SMILES | % Inhibition (Single Point Data) [1] | IC50 [2] | % Inhibition (Single Point Data) [3] | IC50
32 | Fc1ccc(Cl)c2nc(CN3CC4CC(C3)N4CC(F)(F)C3CCCCC3)[nH]c12 [Compound 176] |  | 128 nM | 83.015% | 
33 | Fc1cc(Cl)c2nc(CN3CC4CC(C3)N4CC(F)(F)C3CCCCC3)[nH]c2c1 [Compound 167] |  | 381 nM | 79.996% | 
34 | N#CC1(CN2C3CC2CN(Cc2nc4c(Cl)ccc(F)c4[nH]2)C3)CCCCC1 [Compound 178] |  | 1390 nM | 43.012% | 
35 | Cc1ccnc2[nH]c(CN3CC4CCC(C3)N4CC(=O)NC(C)(C)C)nc12 [Compound 187] |  | 1000 nM | 46.159% | 
36 | CC(C)(C)NC(=O)CN1C2CC1CN(CC(=O)Nc1cccc(C(F)F)c1)C2 [Compound 15] |  | 308 nM | 73.866% | 
37 | CC(C)(NC(=O)CN1C2CC1CN(Cc1nc3c(OC(F)F)ccc(F)c3[nH]1)C2)C(F)(F)F [Compound 184] |  | 200 nM | 86.326% | 
38 | COc1cc(NC(=O)CN2CC3CC(C2)N3CC(=O)NC(C)(C)C)cc(F)c1F [Compound 353] |  | 97 nM |  | 
39 | O=C(CN1CC2CC(C1)N2CC(=O)NC1(C(F)(F)F)CC1)Nc1ccc(F)c(Cl)c1 [Compound 240] |  | 329 nM | 80.113% | 
40 | CC(C)(C)C(O)CN1C2CC1CN(CC(=O)NC13CC4CC(CC(C4)C1)C3)C2 (stereo not shown) [Compound 293] |  | 1680 nM | 38.151% | 
41 | CC(C)(C)NC(=O)CN1C2CC1CN(CC(=O)Nc1ccc(F)c(OC(F)(F)F)c1)C2 [Compound 242] |  | 177 nM | 93.661% | 
42 | CC1(C)CCCC(=O)N1CCN1C2CC1CN(Cc1nc3c(Cl)cc(F)cc3[nH]1)C2 [Compound 103] |  | 109 nM | 96.655% | 
43 | CC1(S(=O)(=O)NCCN2C3CC2CN(Cc2nc4c(Cl)cc(F)cc4[nH]2)C3)CC1 [Compound 142] |  | 223 nM | 84.115% | 
44 | O=C(CN1CC2CC(C1)N2CCC1CCOCC1)NC12CC3CC(CC(C3)C1)C2 [Compound 292] |  | 4770 nM | 11.934% | 
